Results published in patent US20070134793A1, “REDIFFERENTIATION MEDIUM FOR MAKING […] CHONDROCYTE TO BE […] INTO CHONDROCYTE” (priority 2004, published 2007).

Tested on: dedifferentiated chondrocyte (P4, derived from human auricular cartilage)
Experiment: Study of preferable amount of each component in the redifferentiation medium (type II collagen expression)
Format: cell-based
Conditions: insulin 50, 5, 0.5 μg/mL compared; BMP-2 200 ng/mL, T3 10^-7 M

For insulin, the “content of insulin at which the expression amount of type II collagen was the largest” value was 5 µg/mL.
